What is called IC50 is the point on the concentration scale where inhibition reaches its midpoint.

Where a name gives a salt, the structure may show the parent alone.

For the first test, the system named is F-2,6-P2 in PANC-1 cells. Nature of the test: Quantification of F-2,6-P2 (Van Schaftingen coupled enzyme assay) in PANC-1 cells. The class given is cell-based, human. As to conditions: Homo sapiens; PANC-1 cells; read-out: IC50 based on quantification of F-2,6-P2. The source says:
A method for quantification of F-2,6-P2 has been described by Van Schaftingen et al. (1982) Eur. J. Biochem. 129, 191-5. This sensitive assay is based on the potent activation of pyrophosphate dependent phosphofructokinase-1 (PPi-PFK) from potato tubers by F-2,6-P2. The use of a series of coupled enzymes leads to a consumption of NADH (nicotinamide adenine dinucleotide) that can be followed spectrophotometrically (an updated protocol is available in Van Schaftingen, (1984) Methods of Enzymatic Analysis (Bergmeyer, H. U., ed.), 3rd edn., vol. 6, pp. 335-341, Verlag Chemie, Weinheim). A protocol for measurements in 96-well microtiter plate format is also available (Bruni et al., (1989) Anal. Biochem. 178, 324-6).
The levels of F-2,6-P2 have been determined using the van Shaftingen assay as described in the protocol below, in six different cancer cell lines endogenously expressing varying levels of the different isoforms of PFK-2/BPase-2 (MCF-7, PANC-1, NUGC-3, SW480, SW620 and MIA PaCa-2). All reagents were purchased from commercial sources or prepared in-house.
Cell line B (PANC-1, human pancreatic carcinoma cell line): PANC-1 cells (ATCC-CRL-1469), lot. no. 58564651. Cells were seeded at a concentration of ˜250 000 cells/mL in 100 μL growth medium (˜25 000 cells/well).
Growth medium (cell lines B-F): Dulbecco's Modified Eagle's Medium, DMEM, VWR, LONZ12-604F; 10% FBS, Invitrogen, 10270-106.
Starvation medium (cell lines A-F): DMEM/F12 without phenol red and glucose free, SVA, 991373; 0.25% FBS, Invitrogen, 10270-106.
Induction medium (cell lines A-F): DMEM/F12 without phenol red and glucose free, SVA, 991373; 0.25% FBS, Invitrogen, 10270-106 (same as starvation medium).
Cells were seeded in 96-well Corning Costar tissue culture plates (CLS3595, Sigma-Aldrich) using the concentrations specified above for the different cell lines A-F and incubated over night at 37° C. and 5% CO2. Row A in the plate was left empty and the cell lines added to rows B-H. Next day the growth medium was discarded and replaced with 100 μL starvation medium. The plates were incubated for 18 h at 37° C. and 5% CO2. After 18 h of starvation the cells were induced with 100 μL compound or control solutions. Compounds were either tested in two concentrations (50 μM and 10 μM) or in dose response curves starting from 50 μM. The final DMSO concentration in assay plates was 0.5%. Also a dose response curve of a reference inhibitor was included in row H on each plate. All compounds were tested in duplicate plates. Compounds (in 96 well CLS 3365, Sigma-Aldrich plates) were serial diluted in DMSO from 10 mM compound DMSO stock solutions with Janus (automated liquid handling workstation from PerkinElmer). Five μL were transferred to a Greiner deep well plate (736-0155, VWR) with 495 μL starvation medium. The final start concentration of compounds in the dilution plate was 100 μM, 1% DMSO. For compounds tested as single points, 10 mM compound solutions were diluted five fold in DMSO to 2 mM, followed by the transfer of 5 μL to separate dilution plates with 495 μL starvation medium. The final concentrations of compounds in these dilution plates were 100 or 20 μM, respectively, and final concentration of DMSO was 1%. The plates were incubated at 37° C. and 5% CO2 for 1 h, followed by the addition of 10 μL 20 mM D-glucose in starvation medium. Controls, with and without 1 mM glucose, were included in row B. The final assay volume was 210 μL per well. After 2 h of incubation at 37° C. and 5% CO2, the supernatants were discarded and the cells lysed by the addition of 25 μL 250 mM NaOH. The plates were incubated at 37° C. and 5% CO2 for 5 min followed by an addition of 75 μL MilliQ dH2O. The supernatants were further diluted with 210 μL MilliQ dH2O to a final concentration of 20 mM NaOH. 200 μL were transferred to NUNC 96-well plates (7322661, VWR) and the plates were sealed and stored at −20° C. until analysis. […]
On to `COC(=O)c1ccc(NS(=O)(=O)c2ccc(C(F)(F)F)cc2)cc1O` [Example 16, Methyl 2-hydroxy-4-({[4-(trifluoromethyl)phenyl]sulfonyl}amino)benzoate], for which the IC50 is 4.6 µM.

As to `COC(=O)c1ccc(NS(=O)(=O)c2cccc(-c3cccc(C(N)=O)c3)c2)cc1O` [Example 113, Methyl 4-{[(3′-carbamoylbiphenyl-3-yl)sulfonyl]amino}-2-hydroxybenzoate], the IC50 amounted to 5.4 µM.

For `COC(=O)c1ccc(NS(=O)(=O)c2cccc(-c3cccc(C(=O)OC(C)C)c3)c2)cc1O` [Example 128, 1-Methylethyl 3′-{[3-hydroxy-4-(methoxycarbonyl)phenyl]sulfamoyl}biphenyl-3-carboxylate], the IC50 came out at 13.3 µM.

Turning to `O=C(OCCn1cccc1)c1ccc(NS(=O)(=O)c2cc(Cl)c(Cl)s2)cc1O` [Example 61, 2-(1H-Pyrrol-1-yl)ethyl 4-{[(4,5-dichlorothiophen-2-yl)sulfonyl]amino}-2-hydroxybenzoate], the IC50 is 0.6 µM.

Turning to `COC(=O)c1ccc(NS(=O)(=O)c2csc3ccccc23)cc1O` [Example 52, Methyl 4-[(1-benzothien-3-ylsulfonyl)amino]-2-hydroxybenzoate], the IC50 was 10.8 µM.

As to `COC(=O)c1ccc(NS(=O)(=O)c2cc(-c3ccc(NS(C)(=O)=O)cc3)c(Cl)s2)cc1O` [Example 108, Methyl 4-{[(5-chloro-4-{4-[(methylsulfonyl)amino]phenyl}thiophen-2-yl)sulfonyl]amino}-2-hydroxybenzoate], the IC50 amounted to 7.7 µM.

Consider `O=C(OCCCNc1cccnc1)c1ccc(NS(=O)(=O)c2cccc(-c3cc(F)ccc3O)c2)cc1O` [Example 230, 3-(Pyridin-3-ylamino)propyl 4-{[(5′-fluoro-2′-hydroxybiphenyl-3-yl)sulfonyl]amino}-2-hydroxybenzoate trifluoroacetate], for which the IC50 came to 1.9 µM.

In the case of `COCCOC(=O)c1ccc(NS(=O)(=O)c2cccc(-c3ccc4c(c3)CCO4)c2)cc1O` [Example 175, 2-Methoxyethyl 4-({[3-(2,3-dihydro-1-benzofuran-5-yl)phenyl]sulfonyl}amino)-2-hydroxybenzoate], the IC50 came to 0.7 µM.

As for `COC(=O)c1ccc(NS(=O)(=O)c2cc(Br)c(F)cc2F)cc1O` [Example 49, Methyl 4-{[(5-bromo-2,4-difluorophenyl)sulfonyl]amino}-2-hydroxybenzoate], the concentration for half-maximal inhibition (IC50) was 5.7 µM.

As to `O=C(OCCCN1CCOCC1)c1ccc(NS(=O)(=O)c2cc(Cl)c(Cl)s2)cc1O` [Example 63, 3-Morpholin-4-ylpropyl 4-{[(4,5-dichlorothiophen-2-yl)sulfonyl]amino}-2-hydroxybenzoate trifluoroacetate], the IC50 turned out to be 4 µM.

For the molecule `COC(=O)c1ccc(NS(=O)(=O)c2cccc(-c3ccc(OC(F)(F)F)cc3)c2)cc1O` [Example 99, Methyl 2-hydroxy-4-({[4′-(trifluoromethoxy)biphenyl-3-yl]sulfonyl}amino)benzoate], the half-inhibitory concentration (IC50) was determined as 2.4 µM.

For `COC(=O)c1ccc(NS(=O)(=O)c2cc(Cl)cc(Cl)c2)cc1O` [Example 22, Methyl 4-{[(3,5-dichlorophenyl)sulfonyl]amino}-2-hydroxybenzoate], the IC50 was 1.7 µM.

For the molecule `COC(=O)c1ccc(NS(=O)(=O)c2cccc(OC(F)(F)F)c2)cc1O` [Example 44, Methyl 2-hydroxy-4-({[3-(trifluoromethoxy)phenyl]sulfonyl}amino)benzoate], the IC50 was determined as 5.8 µM.

`COC(=O)c1ccc(NS(=O)(=O)c2cccc(-c3ccc(C(=O)N(C)C)cc3)c2)cc1O` [Example 101, Methyl 4-({[4′-(dimethylcarbamoyl)biphenyl-3-yl]sulfonyl}amino)-2-hydroxybenzoate]: the IC50 is 8.4 µM.

`COC(=O)c1ccc(NS(=O)(=O)Cc2ccc(-c3ccccc3O)cc2)cc1O` [Example 126, Methyl 2-hydroxy-4-({[(2′-hydroxybiphenyl-4-yl)methyl]sulfonyl}amino)benzoate]: the half-maximal inhibitory concentration (IC50) was 1.4 µM.

Take `COC(=O)c1ccc(NS(=O)(=O)c2cc(-c3cccnc3)c(Cl)s2)cc1O` [Example 111, Methyl 4-{[(5-chloro-4-pyridin-3-ylthiophen-2-yl)sulfonyl]amino}-2-hydroxybenzoate]: the IC50 is 4.6 µM.

With `COC(=O)c1ccc(NS(=O)(=O)c2cnc(Cl)c(Br)c2)cc1O` [Example 14, Methyl 4-{[(5-bromo-6-chloropyridin-3-yl)sulfonyl]amino}-2-hydroxybenzoate], the IC50 worked out at 1.9 µM.

Regarding `COC(=O)c1ccc(NS(=O)(=O)Cc2ccc(Br)cc2)cc1O` [Example 24, Methyl 4-{[(4-bromobenzyl)sulfonyl]amino}-2-hydroxybenzoate], the IC50 turned out to be 10.4 µM.

Turning to `COC(=O)c1ccc(NS(=O)(=O)c2cccc(C(=O)OC(C)C)c2)cc1O` [Example 137, Methyl 2-hydroxy-4-[({3-[(1-methylethoxy)carbonyl]phenyl}sulfonyl)amino]benzoate], the IC50 is 11.1 µM.

For the molecule `COC(=O)c1ccc(NS(=O)(=O)c2cc(C)c(Br)s2)cc1O` [Example 58, Methyl 4-{[(5-bromo-4-methylthiophen-2-yl)sulfonyl]amino}-2-hydroxybenzoate], the half-inhibitory concentration (IC50) came to 5.6 µM.

Still in this test, the particulars now being: at 12.5-50 μM in PANC-1 cells.
On to `COC(=O)c1ccc(NS(=O)(=O)c2c(C)cccc2Cl)cc1O` [Example 43, Methyl 4-{[(2-chloro-6-methylphenyl)sulfonyl]amino}-2-hydroxybenzoate], for which the “inhibition (F-2,6-P2 levels)” value is reported as at least 50%.

Consider `CC(=O)Oc1cc(NS(=O)(=O)c2cccc3ccccc23)ccc1C(=O)OCc1ccccc1` [Example 140, Benzyl 2-acetoxy-4-[(1-naphthylsulfonyl)amino]benzoate], for which the “inhibition (F-2,6-P2 levels)” value is at least 50%.

As for `O=C(O)C(F)(F)F.O=C(OCCOc1ccc(Cl)nc1)c1ccc(NS(=O)(=O)c2cc(Cl)c(Cl)s2)cc1O` [Example 226, 2-[(6-Chloropyridin-3-yl)oxy]ethyl 4-{[(4,5-dichloro-2-thienyl)sulfonyl]amino}-2-hydroxybenzoate trifluoroacetate], the “inhibition (F-2,6-P2 levels)” value is listed as at least 50%.

As for `O=C(Oc1ccccc1)c1ccc(NS(=O)(=O)c2cc(Cl)c(Cl)s2)cc1O` [Example 73, Phenyl 4-{[(4,5-dichloro-2-thienyl)sulfonyl]amino}-2-hydroxybenzoate], the “inhibition (F-2,6-P2 levels)” value is listed as at least 50%.

On to `COC(=O)c1ccc(NS(=O)(=O)c2cccc(OC(F)F)c2)cc1O` [Example 31, Methyl 4-({[3-(difluoromethoxy)phenyl]sulfonyl}amino)-2-hydroxybenzoate], for which the “inhibition (F-2,6-P2 levels)” value was at least 50%.

Take `CN1CCN(CCCOC(=O)c2ccc(NS(=O)(=O)c3cc(Cl)c(Cl)s3)cc2O)CC1.O=C(O)C(F)(F)F` [Example 65, 3-(4-Methylpiperazin-1-yl)propyl 4-{[(4,5-dichlorothiophen-2-yl)sulfonyl]amino}-2-hydroxybenzoate trifluoroacetate]: the “inhibition (F-2,6-P2 levels)” value is listed as at least 50%.

As for `COC(=O)c1ccc(NS(=O)(=O)c2cc(Cl)c(-c3ccccc3OC)s2)cc1O` [Example 207, Methyl 4-({[4-chloro-5-(2-methoxyphenyl)thiophen-2-yl]sulfonyl}amino)-2-hydroxybenzoate], the “inhibition (F-2,6-P2 levels)” value is reported as at least 50%.

(Values after patent US9718809B2, “Bisarylsulfonamides useful in the treatment of inflammation and cancer” (Kancera AB, priority 2011, dated 2017).)
